In patent US20180207249A1, “METHOD AND VACCINE COMPRISING COPOLYMER 1 FOR TREATMENT OF PSYCHIATRIC DISORDERS” (YEDA RESEARCH AND DEVELOPMENT CO. LTD., priority 2003, published 2018):

Assays:
Type in all cases: in vivo, mouse
[1] = test system: C57BL/6J mice injected with MK-801 or AMPH; assay: Morris water maze (MWM) spatial learning/memory task after psychotomimetic drug; settings: C57BL/6J mice immunized 1 week before MK-801
Experimental: (§1) (iii) Immunization. Each animal was injected with a total of 100 μg of Cop-1 emulsified in an equal volume of complete Freund's adjuvant (CPA) containing 5 mg/ml of Mycobacteria H37 RA (Difco). The emulsion, in a total volume of 0.1 mL, was injected into the flank 1 week before the mouse was first injected with a psychotomimetic drug. Control mice were injected with an equal volume of phosphate-buffered saline (PBS) emulsified in CFA.
(vi) Drug solutions. Fresh solutions of dizocilpine maleate (MK-801; Sigma-Aidrich) were prepared in physiological saline (0.9% NaCl in sterile distilled water) for each batch of mice. Physiological saline was also used as a vehicle for D-amphetamine sulfate (AMPH: Sigma). MK-801. (0.1 mg/kg) or AMPH (2.5 mg/kg) or sahne was injected i.p., in a total volume of 5 ml per kg of body weight. Mice were injected with MK-801, AMPH, or vehicle 15 min before being subjected to behavioral tests.
(vii) Morris water maze (MWM) behavioral test. Spatial learning/memory was assessed by performance on a hippocampal-dependent visuospatial learning task in the MWM. Mice were given four trials per day, for four consecutive days, to find a hidden platform located 1.5 cm below the water surface in a pool 1.4 m in diameter. Within the testing room only distal visuo-spatial cues were available to the mice for location of the submerged platform. The escape latency, i.e., the time required by the mouse to find and climb onto the platform, was recorded for up to 60 s. Each mouse was allowed to remain on the platform for 30 s, and was then moved from the maze to its home cage. […] The inter-trial interval was 30 s. On day 5, the platform was removed from the pool, and each mouse was tested by a probe trial for 60 s. On days 6-7 the platform was placed at the opposite, location, and the mouse was retrained in four sessions. Data were recorded by using an EthoVision automated tracking system (Noldus Information Technology, Wageningen, The Netherlands). […]

[2] = test system: male C57B1/6J mice exposed to the odor of a predator; assay: Behavioral adaptation to psychological stress (predator odor; EPM and ASR cut-off behavioral criteria); settings: single 10-min exposure to odor of a predator, PBS/CFA control 40.8%, P<0.05
Experimental: as §1
(ix) Induction of psychological stress. Mice in the experimental groups were exposed for 10 minutes to thoroughly soiled eat litter (used by a cat for 2 days and sifted for faeces). Control (WT) mice were exposed for the same time to unused litter. […]
Behavior on the EPM was recorded using EthoVision programs (Noldus) that recorded the location of the mouse over the 5-minute test period. […]
Five behavioral parameters were assessed: (1) time spent in the open arms; (2) time spent in the closed arms; (3) number of entries into open arms; (4) number of entries into closed arms; (5) total number of entries into all arms. Mice were recorded as having entered an open or closed arm only when all four paws had passed over the dividing line between open and closed arms. […]
(xi) Acoustic startle response (ASR). […] The ASR and pre-pulse inhibition were measured using two ventilated startle chambers (SR-LAB system, San Diego Instruments, San Diego, Calif.). […]

[3] = test system: mice injected with a psychotomimetic drug; assay: Social behavior test; settings: vaccinated mice vs controls; data not shown

Substance: Copolymer 1 [Cop-1]
- MWM extinction phase, time spent in training quadrant after MK-801 [1]: behaved similarly to WT mice
- Prevalence of maladaptation (behavioral changes) after predator odor [2]: 14.8%
- Communicative behavior in social behavior test [3]: better communicative behavior than the controls
